Laboratory results: US20070265451A1, “Process for the preparation of oxazolidinones and method of use thereof” (Board of Trustees of Michigan State University, priority 2001, published 2007)
Values after ≈ are worked out from the molar mass of the structure shown.

Key:
Type in all cases: cell-based
[1] = test system: Enterococcus faecalis 29212; assay: Broth microdilution MIC, Enterococcus faecalis ATCC 29212; details: for MIC / MIC90: Enterococcus faecalis; for MIC: ATCC29212, Table 2, read-out: MIC(90-100) EF-ATCC 29212; for MIC90: ATCC29213, Table 1, read-out: MIC90-100 EF ATCC 29213
[2] = test system: Staphylococcus aureus 29213; assay: Broth microdilution MIC, Staphylococcus aureus ATCC 29213; details: Staphylococcus aureus; for MIC: ATCC29213, Table 2, read-out: MIC(90-100) SA-ATCC 29213; for MIC90: ATCC29212, Table 1, SA, strain ATCC 29212, read-out: MIC90-100 SA ATCC 29212
From the text: (§1) See, NCCLS document M7-A5. Methods for Dilution Antimicrobial Susceptibility Tests for Bacteria That Grow Aerobically; Approved Standard-Fifth Edition. Volume 20, Number 2. January 2000, (ISBN 1-56238-394-9) and Lorian V. Antibiotics. Laboratory Medicine. 4th ed. Baltimore: Williams and Wilkins, pp. 52-111 (1996). For subsequent testing, the following strains have been used: Staphylococcus aureus NRS4 (992; HIP5836; New Jersey) (Smith et al., New Engl. J. Med. 340: 493-501 (1999); Tenover et al., J. Clin. Microbiol. 36: 1020-1027 (1998)), Staphylococcus aureus NRS3 (963sm; HIP5827; Michigan) (Smith et al., ibid.; Tenover et al., ibid.), Staphylococcus aureus NRS103 (Becker) (Karakawa and Vann, Sem. Infect. Dis. 4: 285 (1982), Staphylococcus aureus NRS102 (Reynolds) Karakawa and Vann, ibid; McMurray et al., JID 162: 759-762 (1990)), Staphylococcus epidermidis NRS101 (ATCC 35984), Streptococcus pneumoniae (ATCC 49619), Enterococcus faecalis (ATCC 51299), and Staphylococcus aureus (ATCC 43300.
(§2) Stock cultures of these strains were obtained by seeding colonies from overnight streak plates (Tryptic Soy Agar II (TSAII) and 5% sheep's blood (SB) agar plates: Becton Dickinson, CA#2211261) into sterile Mueller-Hinton Broth (MHB)(Becton Dickinson, CA#211443) and growing the suspensions to mid-late log phase in 13 mL screw-cap tubes. Glycerol (Sigma, CA#G-6279) was sterilized by autoclaving for 15 minutes at 121° C. in 6 mL volumes, and then stored at 2-8° C. This was diluted to 20% in dH2O, and then added 1:1 (250 μL:250 μL, 10% final glycerol concentration) to the logarithmically growing bacterial suspension of each strain. Tubes were frozen and stored at −70° C. Purity of the stock cultures was tested by thawing one tube of each strain in a water bath at 37° C. and plating them on TSAII with 5% SB. Plates were incubated overnight at 37° C. and colonies were examined for morphology. Growth curves and approximate CFU/mL were also obtained.
(§3) High purity substituted oxazolidinones prepared according to the method of the present invention and a ZYVOX standard (ZYVOX is a trade name for linezolid available from Pharmacia Corporation) were provided by Synthon Corporation, Monmouth Junction, N.J. Compounds were dissolved at 10 mg/mL in DMSO, as after a dilution of approx. 39.0 to reach the desired final starting concentration of 256 ug/ml, the concentration of DMSO is approximately 2.5%. Compounds were then stored at room temperature (25° C.) in the dark.
(§4) Antimicrobial susceptibility screening was as follows. All compounds were initially screened for activity in duplicate at 256 μg/mL (2.5% DMSO), including ZYVOX, the positive control for antimicrobial activity. A single well of bacterially inoculated 2.5% DMSO served as a positive control for bacterial growth, while a well of DMSO inoculated with of 50 μL of sterile 0.9% saline served as a negative growth control. Controls were prepared on every microplate, so that 46 was the maximum number of compounds that were screened per plate. Broth was pipetted into sterile microcentrifuge tubes, to which the compounds were then added (1:19.53 dilution or 2× final concentration). Each tube was vortexed, and 50 μL was immediately transferred to the microplate wells for each strain. Solubility was assessed by visual observation. MB (medium broth solubility) was recorded if the solution appeared only slightly cloudy. LB (low broth solubility) was recorded if the solution was extremely cloudy, and especially if larger, clumpy precipitates formed. Bacteria were grown as described above, although absorbance was measured at 650 nm and bacteria were diluted to an initial OD of 0.12-0.15. Bacteria were then further diluted 1:100 with 0.9% sterile saline. Within 15 minutes of this final dilution, 50 μL of this suspension was added to each well for a final volume of […], and a final bacterial concentration of 1×10^5 CFU/mL (except for the negative control well). Plates were grown as above and all observations were recorded. […]

[3] = test system: Staphylococcus aureus NRS103 (Becker); assay: Broth microdilution MIC, Ref SA Becker; details: strain Becker, read-out: MIC90-100 Ref SA Becker
From the text: as §1, §2, §3, §4

[4] = test system: Staphylococcus aureus NRS3 (963sm; HIP5827; Michigan); assay: Broth microdilution MIC, MR SA Michigan; details: strain Michigan; for MIC90: Staphylococcus aureus, NRS3, methicillin resistant SA, read-out: MIC90-100 MR SA Michigan
From the text: as §1, §2, §3, §4

[5] = test system: Staphylococcus aureus NRS4 (992; HIP5836; New Jersey); assay: Broth microdilution MIC, MR SA New Jersey; details: strain New Jersey; for MIC90: Staphylococcus aureus, NRS4, methicillin resistant SA, read-out: MIC90-100 MR SA New Jersey
From the text: as §1, §2, §3, §4

[6] = test system: Staphylococcus aureus NRS102 (Reynolds); assay: Broth microdilution MIC, Pen. R SA Reynolds; details: strain Reynolds, read-out: MIC90-100 Pen. R SA Reynolds
From the text: as §1, §2, §3, §4

[7] = test system: Erythroid bone marrow cells; assay: Bone marrow cell growth inhibition, erythroid
From the text: (§5) In general, many of the substituted oxazolidinones were as effective as ZYVOX.

[8] = test system: Staphylococcus aureus (ATCC 43300); assay: Broth microdilution MIC, MR SA ATCC 43300; details: ATCC43300, methicillin resistant SA, read-out: MIC90-100 MR SA ATCC 43300
From the text: as §1, §2, §3, §4

[9] = test system: Megakaryocytic bone marrow cells; assay: Bone marrow cell growth inhibition, megakaryocytic
From the text: as §5

[10] = test system: Enterococcus faecalis (ATCC 51299); assay: Broth microdilution MIC, Enterococcus faecalis ATCC 51299; details: ATCC51299, vancomycin sensitive EF, ATCC 51299, read-out: MIC90-100 VS EF ATCC 51299
From the text: as §1, §2, §3, §4

[11] = test system: Myeloid bone marrow cells; assay: Bone marrow cell growth inhibition, myeloid
From the text: as §5

For `O=C1NCC(COS(=O)(=O)c2ccc(Cl)cc2[N+](=O)[O-])O1` (centres unmarked) [Compound 1998], which MIC [1] is on record?
The MIC was 64 µg/mL (≈ 190 µM).

And the MIC [2]?
Its MIC is 16 µg/mL (≈ 47.5 µM).

For `O=C1OC(COSc2ccc([N+](=O)[O-])cc2)CN1Cc1ccc([N+](=O)[O-])cc1` (centres unmarked) [Compound 2017], which MIC [1] is on record?
Its MIC is 8 µg/mL (≈ 19.7 µM).

And the MIC [2]?
The MIC was 16 µg/mL (≈ 39.5 µM).

With `O=C1OC(COSc2ccc([N+](=O)[O-])cc2)CN1Cc1ccc(Br)cc1` (centres unmarked) [Compound 2019] as the compound, how does the MIC [1] read?
The MIC was 32 µg/mL (≈ 72.8 µM).

And the MIC [2]?
The MIC was 16 µg/mL (≈ 36.4 µM).

What does the source list for `O=C(OCC1CN(Cc2ccc(Br)cc2)C(=O)O1)Oc1ccc([N+](=O)[O-])cc1` (centres unmarked) [Compound 2020]?
MIC [1]: 124 µg/mL (≈ 275 µM); MIC [2]: 64 µg/mL (≈ 142 µM)

`CC(=O)/C=C/N1CC(COSc2ccc([N+](=O)[O-])cc2)OC1=O` (centres unmarked) [Compound 2023] was tested. Which MIC [1] did it give?
Its MIC is 32 µg/mL (≈ 94.6 µM).

What about the MIC [2] of the same compound?
The MIC was 64 µg/mL (≈ 189 µM).

With `CCOC(=O)/C=C/N1CC(COSc2ccc([N+](=O)[O-])cc2)OC1=O` (centres unmarked) [Compound 2025] as the compound, how does the MIC [1] read?
Its MIC is 32 µg/mL (≈ 86.9 µM).

What about the MIC [2] of the same compound?
Its MIC is 64 µg/mL (≈ 174 µM).

For `O=C1O[C@H](CNSc2ccc([N+](=O)[O-])cc2)CN1c1ccc([N+](=O)[O-])cc1` [Compound 2278], which MIC90 ([1]; EF, strain printed ATCC 29213) is on record?
The MIC90 was 2 µg/mL (≈ 5.12 µM).

What about the MIC90 [3] of the same compound?
Its MIC90 is 8 µg/mL (≈ 20.5 µM).

And the MIC90 [4]?
Its MIC90 is 4 µg/mL (≈ 10.2 µM).

And the MIC90 [5]?
The MIC90 was 4 µg/mL (≈ 10.2 µM).

And the MIC90 [6]?
Its MIC90 is 8 µg/mL (≈ 20.5 µM).

And the MIC90 [2]?
Its MIC90 is 4 µg/mL (≈ 10.2 µM).

With `CCN1C[C@@H](COS(=O)(=O)c2ccc([N+](=O)[O-])cc2)OC1=O` [Compound 2405] as the compound, how does the “MIC90-100 EF ATCC 29213” value ([1]; Table 1, EF, strain printed ATCC 29213) read?
The value was 2 µg/mL (≈ 6.05 µM).

What about the MIC90 [3] of the same compound?
Its MIC90 is 4 µg/mL (≈ 12.1 µM).

What about the “MIC90-100 MR SA Michigan” value ([4]; methicillin resistant SA) of the same compound?
Its value is 2 µg/mL (≈ 6.05 µM).

What about the “MIC90-100 MR SA New Jersey” value ([5]; methicillin resistant SA) of the same compound?
Its value is 4 µg/mL (≈ 12.1 µM).

What about the MIC90 [6] of the same compound?
The MIC90 was 8 µg/mL (≈ 24.2 µM).

And the MIC90 [2]?
The MIC90 was 2 µg/mL (≈ 6.05 µM).

Which results are given for `CC(C)N1C[C@H](CNSc2ccc([N+](=O)[O-])cc2)OC1=O` [Compound 2428]?
MIC90 ([1]; EF, strain printed ATCC 29213): 4 µg/mL (≈ 12.8 µM); MIC90 [3]: 16 µg/mL (≈ 51.4 µM); MIC90 [4]: 4 to 8 µg/mL (≈ 12.8 to 25.7 µM); MIC90 [5]: 4 to 8 µg/mL (≈ 12.8 to 25.7 µM); MIC90 [6]: 32 µg/mL (≈ 103 µM); MIC90 [2]: 4 µg/mL (≈ 12.8 µM)

How did the IC50 [7] turn out when `CC(=O)NC[C@H]1CN(c2ccc(N3CCOCC3)c(F)c2)C(=O)O1` [ZYVOX, linezolid, reference compound] was run?
Its IC50 is 0.08 µg/mL (≈ 0.237 µM).

What about the MIC90 [8] of the same compound?
Its MIC90 is 1 µg/mL (≈ 2.96 µM).

And the MIC90 ([1]; EF, strain printed ATCC 29213)?
The MIC90 was 2 µg/mL (≈ 5.93 µM).

And the IC50 [9]?
The IC50 was 4 µg/mL (≈ 11.9 µM).

What about the MIC90 [3] of the same compound?
The MIC90 was 1 µg/mL (≈ 2.96 µM).

And the MIC90 [4]?
The MIC90 was 2 µg/mL (≈ 5.93 µM).

And the MIC90 [10]?
The MIC90 was 0.5 µg/mL (≈ 1.48 µM).

And the MIC90 [5]?
The MIC90 was 2 µg/mL (≈ 5.93 µM).

And the MIC90 [6]?
Its MIC90 is 1 µg/mL (≈ 2.96 µM).

What about the IC50 [11] of the same compound?
The IC50 was 20 µg/mL (≈ 59.3 µM).

What about the MIC90 [2] of the same compound?
Its MIC90 is 2 µg/mL (≈ 5.93 µM).
